Test results: patent publication US20150064273A1, “Mesenchymal Stem Cells Conditioned Medium and Methods of Generating and Using the Same” (Gamida-Cell Ltd., priority 2012, published 2015)

Tests used:
Type in all cases: cell-based
mesenchymal stem cells [1] = assay: MSC cell size (Cedex cell counter) and granularity (side scatter FACS)
Protocol: Measurement of cell size: Cell size was measured using Cedex Automated Cell Counter (Innovatis). The cells were diluted 1:2 in Trypan Blue (Sigma) and cell size was measured automatically under microscope. Measurement of granularicity: Following trypsin treatment, the cells were analyzed for granularicity by side scatter FACS.

IL-6 = IL-6 content of MSC conditioned medium by ELISA; conditions: passage 4; 5 mM NAM, 50 ng/ml FGF4; serum- and FGF4-free medium for 24 hours
Protocol: FIG. 25 is a bar graph illustrating reduction of cytokine IL-6 (IL-6) content of conditioned medium from nicotinamide and FGF4-treated MSC cultures. Bone marrow mesenchymal stem cells were isolated and cultured as in FIG. 22 above. Cultured media was changed to medium without fetal bovine serum or FGF4 24 hours prior to passage 4, collected from the passage 4 cultures and assayed for IL-6 content by ELISA. −NAM, −FGF4=control; +NAM−FGF4=5 mM NAM, +NAM+FGF4=5 mM NAM+50 ng/ml FGF4. […] In order to assess whether mesenchymal stem cells cultured with nicotinamide or nicotinamide and FGF4 modify the culture medium in a unique manner, secretion of biologically active molecules into the culture medium was measured by ELISA, after depletion of the FGF4 from the medium.

mesenchymal stem cells [2] = assay: Senescence evaluation assay of cultured MSCs; conditions: MSCs cultured with nicotinamide
Protocol: Senescence evaluation assay: Cultured MSCs were stained using the Senescence beta-Galactosidase Staining Kit (Cell Signaling). The cells are fixed and stained for detection of beta-Galactosidase activity at pH 6 using X-Gal and incubation overnight in 37° C. in dry incubator.

mesenchymal stem cells [3] = assay: In-vitro wound healing assay on MSC cultures; conditions: passage 3; 4 days post wound formation
Protocol: FIGS. 20A-B are photographs illustrating results of an in vitro wound healing assay which was performed on MSCs cultured with (FIG. 20B) or without (FIG. 20A) nicotinamide at passage 3. Wound healing was observed 4 days post wound formation. In-vitro wound healing assay: Wound was performed in MSCs cultures at ˜70% confluence using 200 μl or 1000 μl tip. Four days later the cells were fixated using 10% cold Formalin (Sigma) and stained with Harris Hematoxylin (Sigma). The in-vitro wound healing process was evaluated using microscope.

mesenchymal stem cells [4] = assay: Mesenchymal stem cell culture with growth factors with or without nicotinamide, cell counts
Protocol: Isolation: Bone marrow derived and adipose tissue derived mesenchymal cells were isolated based on their plastic adherence potential in expansion medium containing: High glucose DMEM and 10% Fetal Bovine Serum (FBS, Hyclone, Logan, Utah, USA) supplemented with 0.05 mg/ml Gentamicin (Sigma) and 2 mM L-glutamine (Biological Industries, Israel). Cells were allowed to adhere for 3-4 days and non-adherent cells were washed out with medium changes. The medium was further exchanged with fresh medium every 3-4 days.
Maintenance and expansion: Once adherent cells reached approximately 80-90% confluency, they were detached with 0.25% trypsin-EDTA (Sigma), washed twice in DMEM and 10% Fetal Bovine Serum, with centrifugation, 400 g, 5 minutes, and re-plated at a 1:2 to 1:1000 dilution under the same culture conditions.
Measurement of number of cells in culture: Cell number was measured using Cedex Automated Cell Counter (Innovatis). The cells were diluted 1:2 in Trypan Blue (Sigma) and cell number was measured automatically under microscope.
Treatment of mesenchymal cultures with nicotinamide: Mesenchymal cultures were initiated as described above, and supplemented with nicotinamide 1-15 mM alone, or in combination with growth factors or growth factors alone, incubated at 37° C. in a humidified atmosphere of 5% CO2 in air. At each passage and at each medium exchange, the cultures were supplemented with mesenchymal medium, nicotinamide and growth factors.
Mesenchymal stem cells were selected and cultured in the presence of particular growth factors (basic fibroblast growth factor—bFGF, heparin binding epidermal growth factor—HB-EGF, fibroblast growth factor 4—FGF-4 and platelet derived growth factor, homodimer, subunit B, PDGF-BB) in the presence and absence of nicotinamide for three or four passages and the number and size of the cells was calculated.
Two concentrations (10 and 50 ng/ml) of each one of the following factors were examined.
In addition, the influence of the combination: 5 mM NAM+50 ng/ml FGF4+50 ng/ml PDGF-BB was examined in comparison to an individual supplement.

[5] = tested on: Keratinocyte Growth Factor (KGF); assay: KGF content of MSC conditioned medium by ELISA; conditions: passage 4; 5 mM NAM, 50 ng/ml FGF4; serum- and FGF4-free medium for 24 hours
Protocol: FIG. 24 is a bar graph illustrating enhancement of Keratinocyte Growth Factor (KGF) content of conditioned medium from nicotinamide and FGF4-treated MSC cultures. Bone marrow mesenchymal stem cells were isolated and cultured as in FIG. 22 above. Cultured media was changed to medium without fetal bovine serum or FGF4 24 hours prior to passage 4, collected from the passage 4 cultures and assayed for KGF content by ELISA. −NAM, −FGF4=control; +NAM−FGF4=5 mM NAM, +NAM+FGF4=5 mM NAM+50 ng/ml FGF4. Note the significant effect of combined FGF4 and nicotinamide on KGF secretion; Mesenchymal stem cells cultured with nicotinamide and FGF4 have enhanced expansion potential, and maintain an undifferentiated state, compared to mesenchymal stem cells cultured in unsupplemented medium, or mesenchymal stem cells cultured with added nicotinamide alone. In order to assess whether mesenchymal stem cells cultured with nicotinamide or nicotinamide and FGF4 modify the culture medium in a unique manner, secretion of biologically active molecules into the culture medium was measured by ELISA, after depletion of the FGF4 from the medium.

SMILES: NC(=O)c1cccnc1 [nicotinamide, Nicotinamide]
- cell size / undifferentiated state of MSCs cultured with FGF4 (mesenchymal stem cells [1]; FGF4 50 ng/ml, NAM 5 mM, Cedex cell counter): preserves the undifferentiated state
- cell size and granularity of MSCs grown with nicotinamide vs without (mesenchymal stem cells [1]; identical conditions without nicotinamide as comparison): smaller and less granular
- IL-6 secreted into conditioned medium (IL-6): reduction
- number of senescent cells following culture (mesenchymal stem cells [2]): reduced
- wound closure capacity of MSCs (mesenchymal stem cells [3]): higher wound closure capacity
- effect on the ability of FGF4 to increase proliferation of mesenchymal stem cells (mesenchymal stem cells [4]; 5 mM NAM with FGF4 50 ng/ml): potentiating effect
- proliferative capacity of large batches of MSCs (mesenchymal stem cells [4]; cultured with nicotinamide): enhanced proliferative capacity
- KGF level in conditioned medium [5]: elevated levels
